# How the values were obtained:
# Type in all cases: in vivo
# [1] = system: mouse hepatocellular carcinoma cell line BNL 1 ME A.7R.1; test: Antitumor effect in mouse hepatocellular carcinoma cell line (BNL 1 ME A.7R.1) graft model
# Procedure: Example 3 Antitumor effect by combination of compound A and anti-PD-1 antibody in mouse hepatocellular carcinoma cell line (BNI, 1 ME A.7R.1) graft model
# The antitumor effect of administering compound A and anti-M-1 antibody was evaluated in BALB/c mice (BALB/cAnNCriCrli, female, Japan Charles River) with 10 mice per group.
# The grafted cells were pre-conditioned in BALB/c mice, A suspension of the mouse hepatocellular carcinoma cell line line BNL 1 ME A.7R.1 (ATCC) was subcutaneously grafted onto the right side of BALB/c mice (BALB/cArtNCriCrlj, male, Japan Charles River), at 5×10^6 cells per mouse. After grafting, the formed tumors were extracted and finely cut. The mixture was then stirred with a GentleMACS (Miltenvi Biotec K.K.) to obtain a monocellular suspension. After passing through a cell strainer, the cells were collected by centrifugation and cultured.
# (§1) The mouse hepatocellular carcinoma cell line BNL 1 ME A.7R.1 established by this method was suspended in HBSS to a concentration of 1×10^8/mL. The mixture was subsequently grafted onto the right side of BALB/c (BALB/cAnNCrICrlj, female, Japan Charles River) in amounts of 0.1 mL each, and the antitumor effect was evaluated.
# (§2) On the 4th day after grafting, the long and short diameters of the tumors were measured using an electronic digital caliper (Digimaticlm caliper by Mitsutoyo Corp.). The mice were divided into groups in such a manner that the average tumor volumes were the same in each group. The tumor volumes were calculated by the following formula.
# Tumor volume […]=Long diameter (mm)×short diameter (mm)×short diameter (mm)/2
# (§3) Compound A was dissolved in water for injection (Otsuka Pharmaceutical Factory, Inc.) to a concentration of 2.5 mg/mL. The anti-mouse PD-1 antibody (BioXcell) was diluted with physiological saline (Otsuka Pharmaceutical Factory, Inc.) to a concentration of 1 mg/mL.
# (§4) Mice in the compound A administration group were given compound A 1w oral administration at a dose of 25 mg/kg (10 mL/kg), once per day for 7 days. Mice in the anti-PD-1 antibody administration group were intraperitoneally administered a dose of 200 μg/mouse (200 μL/mouse) on day 0 and day 3, where the starting day of administration was defined as day 0. The mice in the compound A and anti-PD-1 antibody combination group were administered both drugs in the same manner described above.
# With the starting day of administration defined as day 0, the tumor volume of each mouse was measured on day 3 and day 7.
# The tumor volumes in the control group and in each group on day 7 were compared in Dunnett's multiple comparison test. The final significance level was as follows.
# [2] = system: mouse breast cancer cell line 4T1-Luc2 AcGFP; test: Antitumor effect in mouse breast cancer cell line (4T1-Luc2 AcGFP) graft model; details: BALB/c mice, anti-PD-1 antibody 0.2 mg/mouse intraperitoneal day 0, 4, 7, 11
# Procedure: Example 1 Antitumor effect by combination of compound A and anti-PD-1 antibody in mouse breast cancer cell line (4T1-Luc2 AcGFP) graft model
# The antitumor effect of administering compound A and anti-PD-1 antibody was evaluated in BALB/c mice (BALB/cAriNCriCrij, female, Japan Charles River) with 6 mice per group.
# The mouse breast cancer cell line 4T1 (ATCC) was seeded in a 6-well microplate (Falcon), at a cell count of 1.5×10^5 per well. The culture medium used was RPMI-1640 medium containing 10% FBS, penicillin, streptomycin and 2-mercaptoethanol (FujiFilm-Wako). The seeded cells were cultured overnight using an incubator under conditions of 5% CO2, 37° C. The culture medium was replaced on the following day.
# Vector pPBcmvIP-mcs was constructed from PB-CMV-MCS-EF1α-Puro vector (SBI; Catalog No.: PB510B-1), removing EF1-Puro and substituting 1RES-Puro. A Luc2/AcGFP fusion gene was then inserted between the pPBcinvIP-mcs CMV promoter and IRES to express Luciferase (Luc) and Green Fluorescent Protein (GFP), to obtain vector pPBcinvIP Luc2-AcGFP. During the process of constructing each vector, insertion of the separated fragments was confirmed by an established method.
# The vector pPBcrnvIP Luc2-AcGFP in 10 mM Tris-C1 (pH 8.0) and 1 mlbJ EDTA (pH 8.0) (“TE Buffer”) (1.67 μg), Super PiggyBac Transposase Expression Vector (System Biosciences, LLC) in TE Buffer (0.33 μg) and X-treamGene reagent (Roche) (8 μL) were mixed, and the mixture was adjusted to a total amount of 210 μL with Opti-MEM (Thermo Fischer Scientific). The obtained mixture was allowed to stand at room temperature for 15 minutes, and then added to the cultured 4T1 cells. The medium was exchanged and subculturing was carried out in a T75 flask, after which culturing was continued under conditions of 5% CO2, 37° C. After 4 days, culturing was carried out in 2 μg/mL puromycin-containing medium.
# Cells were selected twice with a flow cytometer, using AcGFP positivity as the marker. A mycoplasma removal reagent was added to the cells and culturing was continued for 8 days.
# Cells of the mouse breast cancer cell line 4T1-Luc2 AcGFP established by the method described above were suspended in HBSS (FujiFilm-Wako) to a concentration of 2×10^7/mL. The mixture was grafted into mammary gland fat of BALB/c (BALB/cAriNCriCrlj, female. Japan Charles River) in amounts of 0.05 mL each, and the antitumor effect was evaluated.
# as §2, with “(Digimatic™” for “(Digimaticlm”, “Corp.),” for “Corp.).”
# (§5) Tumor volume (mm)=Long diameter (n)×short diameter (mm)×short diameter (mm)/2
# Compound A was dissolved in water for injection (Otsuka Pharmaceutical Factory, Inc.) to a concentration of 2.5 mg/mL. The anti-mouse PD-1 antibody (BioXcell) was diluted with PBS(−) (FujiFilm-Wako) to a concentration of 1 mg/mL. […]
# With the starting day of administration defined as day 0, the tumor volume of each mouse was measured on day 4, day 7, day 11 and day 14.
# The tumor volume on day 14 was statistically analyzed by a One-way ANOVA statistical test, or if […] was found in the test, by the Tukey-Kramer method. […]
# [3] = system: mouse renal cell carcinoma cell line RAG; test: Antitumor effect in mouse renal cell carcinoma cell line (RAG) graft model
# Procedure: Example 2 Antitumor effect by combination of compound A and anti-PD-1 antibody in mouse renal cell carcinoma cell line (RAG) graft model
# The antitumor effect of administering compound A and anti-PD-1 antibody was evaluated in BALB/c mice (BALB/cAnNCriCrlj, female, Japan Charles River) with 10 mice per group.
# The grafted cells were pre-conditioned in BALB/c mice. The mouse renal cell carcinoma cell line RAG (ATCC) was suspended in EIBSS to a concentration of 2×10^8/mL. An equal volume of Matrigel™ matrix (Japan Becton Dickinson) was added to and thoroughly mixed with the suspension. The mixture was subcutaneously grafted on the right side of BALB/c mice (BALB/cAnNCriCrlj, female, Japan Charles River), at 0.1 mL each. After grafting, the formed tumors were extracted and finely cut. A Tumor Dissociation Kit, Mouse (Miltenyi Biotec K.K.) was then used for stirring in a GentleMACS (Miltenyi Biotec K.K.) to obtain a monocellular suspension. After passing through a 70 μm cell strainer, the cells were collected by centrifugation and cultured in medium containing 10% bovine serum.
# as §1, with “renal cell” for “hepatocellular”, “RAG” for “BNL 1 ME A.7R.1”, “[…].” for “1×10^8/mL.”, “(BALB/cAnNCriCrij,” for “(BALB/cAnNCrICrlj,”
# as §2, with “7th” for “4th”, “(Digirnatic™” for “(Digimaticlm”
# as §5, §3
# as §4, with “by” for “1w”, “days,” for “days.”, “lig/mouse” for “μg/mouse”
# With the starting day of administration defined as day 0, the tumor volume of each mouse was measured on day 3 and day 7, The mean tumor volumes in each group are shown in Table 2 and FIG. 2. […]
# [4] = day 7, Dunnett's multiple comparison test
smiles,measurement,setting,value
"CNC(=O)n1ccc2cc(Oc3ccnc(NC(=O)c4ccc(C5CCN(CCO)CC5)cc4)c3)c(OCCOC)cc21 [Compound A, 5-((2-(4-(1-(2-hydroxyethyl)piperidin-4-yl)benzamide)pyridin-4-yl)oxy)-6-(2-methoxyethoxy)-N-methyl-1H-indole-1-carboxamide]","mean tumor volume, Day 0","[1]; Day 0 (starting day of administration), BALB/c mice, 10 per group, compound A 25 mg/kg oral once per day for 7 days, anti-PD-1 antibody 200 μg/mouse intraperitoneal day 0 and 3",109.0 mm^3
same,"mean tumor volume, Day 3","[1]; Day 3, BALB/c mice, compound A 25 mg/kg oral once per day, anti-PD-1 antibody 200 μg/mouse intraperitoneal day 0 and 3",223.6 mm^3
same,"mean tumor volume, Day 7","[1]; Day 7, BALB/c mice, compound A 25 mg/kg oral once per day, anti-PD-1 antibody 200 μg/mouse intraperitoneal day 0 and 3",221.4 mm^3
same,difference in tumor volume between the control group and the treatment group,[1]; [4],No statistically significant difference
same,"mean tumor volume, Day 0","[2]; Day 0 (starting day of administration), 6 per group, compound A 25 mg/kg oral once per day for 14 days",77.3 mm^3
same,"mean tumor volume, Day 4","[2]; Day 4, compound A 25 mg/kg oral once per day",139.0 mm^3
same,"mean tumor volume, Day 7","[2]; Day 7, compound A 25 mg/kg oral once per day",131.2 mm^3
same,"mean tumor volume, Day 11","[2]; Day 11, compound A 25 mg/kg oral once per day",226.0 mm^3
same,"mean tumor volume, Day 14","[2]; Day 14, compound A 25 mg/kg oral once per day",314.6 mm^3
same,"mean tumor volume, Day 0","[3]; Day 0 (starting day of administration), BALB/c mice, 10 per group, compound A 25 mg/kg oral once per day for 7 days, anti-PD-1 antibody 200 ug/mouse intraperitoneal day 0 and 3",58.8 mm^3
same,"mean tumor volume, Day 3","[3]; Day 3, BALB/c mice, compound A 25 mg/kg oral once per day, anti-PD-1 antibody 200 ug/mouse intraperitoneal day 0 and 3",72.5 mm^3
same,"mean tumor volume, Day 7","[3]; Day 7, BALB/c mice, compound A 25 mg/kg oral once per day, anti-PD-1 antibody 200 ug/mouse intraperitoneal day 0 and 3",107.5 mm^3
same,difference in tumor volume between the control group and the treatment group,[3]; [4],No statistically significant difference
